The record followed here is US20250262201A1, “COMPOUNDS AND METHODS USEFUL FOR STABILIZING PHENYLALANINE HYDROXYLASE MUTATIONS” (Agios Pharmaceuticals, Inc., priority 2022, published 2025).

The assay deals with T1, human PAH with the R408W mutation (Homo sapiens, UniProt P00439, R408W).
T1 construct: expressed in transfected cells
T1 sequence (P00439 1-452 R408W): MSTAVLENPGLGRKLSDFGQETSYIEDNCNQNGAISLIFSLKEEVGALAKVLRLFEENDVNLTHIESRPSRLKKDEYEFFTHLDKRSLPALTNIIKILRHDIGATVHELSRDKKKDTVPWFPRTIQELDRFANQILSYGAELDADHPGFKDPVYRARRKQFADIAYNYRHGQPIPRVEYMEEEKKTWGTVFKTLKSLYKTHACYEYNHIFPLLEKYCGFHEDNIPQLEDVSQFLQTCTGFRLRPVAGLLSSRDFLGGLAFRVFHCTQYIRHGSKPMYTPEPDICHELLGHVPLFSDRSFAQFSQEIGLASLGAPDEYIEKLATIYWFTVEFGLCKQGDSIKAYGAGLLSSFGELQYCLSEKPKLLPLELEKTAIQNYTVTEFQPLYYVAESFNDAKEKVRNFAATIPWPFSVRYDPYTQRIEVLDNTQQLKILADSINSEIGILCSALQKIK
Briefly: Cell Based Phenylalanine Flux Assay. The arrangement: scale not given here. The following applies: 13C-Tyrosine by LC-MS, average where tested multiple times.

Setting [1] is: A375 cells expressing human R408W PAH, 24 hrs compound incubation, read-out: AC50.
The mark [2] stands for this setting: A375 R408W cells, 24 hrs with compound, then 20 μM sepiapterin and 800 μM 13C9,15N-Phenylalanine for 4 hours, read-out: AC50.
[3] abbreviates: A375 R408W cells, 24 hrs with compound, then 20 μM sepiapterin and 800 μM 13C9,15N-Phenylalanine for 4 hours.

Each structure is given as a SMILES string. Like-named read-outs stand apart in the source and are kept apart here.

Regarding `Cc1nnc(C(=O)N2CC3(CC3)c3[nH]cnc3[C@H]2c2cc3ccccc3cn2)o1` [Example 490, (R)-(4′-(isoquinolin-3-yl)spiro[cyclopropane-1,7′-imidazo[4,5-c]pyridin]-5′(1′H,4′H,6′H)-yl)(5-methyl-1,3,4-oxadiazol-2-yl)methanone], the AC50 under setting [1] was below 500 nM.

Turning to `Fc1ccc(-c2nnc(N3CCc4[nH]cnc4C3c3ccc4ccccc4n3)o2)cc1` (stereo in doubt) [Example 20, (R)-2-(4-fluorophenyl)-5-(4-(quinolin-2-yl)-6,7-dihydro-1H-imidazo[4,5-c]pyridin-5(4H)-yl)-1,3,4-oxadiazole], under setting [1], the AC50 lay within 500 to 1000 nM.

As to `C[C@H]1CN(C(=O)c2cnc(C(C)(C)O)o2)[C@@H](c2cc3ccccc3cn2)c2nc[nH]c21` [Example 396, (2-(2-hydroxypropan-2-yl)oxazol-5-yl)((4S,7S)-4-(isoquinolin-3-yl)-7-methyl-6,7-dihydro-1H-imidazo[4,5-c]pyridin-5(4H)-yl)methanone], under setting [1], the AC50 is 1000 to 5000 nM.

For `CC(C)(C)c1nnc(C(=O)N2CCc3[nH]cnc3[C@@H]2c2ncc3ccccc3n2)o1` [Example 202, (R)-(5-(tert-butyl)-1,3,4-oxadiazol-2-yl)(4-(quinazolin-2-yl)-6,7-dihydro-1H-imidazo[4,5-c]pyridin-5(4H)-yl)methanone], under setting [1], the AC50 was above 5000 nM.

In the case of `O=C(c1cn[nH]c1Cl)N1CCc2[nH]cnc2C1c1ccc2ccccc2n1` (stereo in doubt) [Example 123, (S)-(5-chloro-1H-pyrazol-4-yl)(4-(quinolin-2-yl)-6,7-dihydro-1H-imidazo[4,5-c]pyridin-5(4H)-yl)methanone], the AC50 under setting [1] is 1000 to 5000 nM.

For `O=C(C1CN(c2ccccn2)C1)N1CCc2[nH]cnc2C1c1cc2ccccc2cn1` (single isomer, unassigned), the AC50 under setting [2] was in the range of 1000 to 5000 nM.

For `CC1CN(C(=O)c2nnc(-c3cnn(C)c3)o2)C(c2cc3ccccc3cn2)c2nc[nH]c21` (stereo not shown), the AC50 under setting [2] fell in the range of 1000 to 5000 nM.

As to `O=C(c1cnn2cc(-c3cnccn3)ccc12)N1CCc2[nH]cnc2[C@H]1c1cc2ccccc2cn1` [Example 477, (R)-(4-(isoquinolin-3-yl)-6,7-dihydro-1H-imidazo[4,5-c]pyridin-5(4H)-yl)(6-(pyrazin-2-yl)pyrazolo[1,5-a]pyridin-3-yl)methanone], the AC50 under setting [1] is below 500 nM.

`CC(C)(O)c1noc(C(=O)N2CCc3[nH]cnc3[C@H]2c2cc3ccccc3cn2)n1` [Example 422, (R)-(3-(2-hydroxypropan-2-yl)-1,2,4-oxadiazol-5-yl)(4-(isoquinolin-3-yl)-6,7-dihydro-1H-imidazo[4,5-c]pyridin-5(4H)-yl)methanone]: under setting [1], the AC50 was in the range of 1000 to 5000 nM.

On to `O=C(c1oc(C2CC2)nc1C(F)(F)F)N1CCc2[nH]cnc2[C@H]1c1cn2ccccc2n1` [Example 240, (R)-(2-cyclopropyl-4-(trifluoromethyl)oxazol-5-yl)(4-(imidazo[1,2-a]pyridin-2-yl)-6,7-dihydro-1H-imidazo[4,5-c]pyridin-5(4H)-yl)methanone], for which, under setting [1], the AC50 was below 500 nM.

In the case of `Cn1cc(-c2ncc(C(=O)N3CCc4[nH]cnc4C3c3ccc4ccccc4n3)o2)cn1` (stereo not shown), the AC50 under setting [2] was 1000 to 5000 nM.

Turning to `O=C(c1nsc2ccccc12)N1CCc2[nH]cnc2C1c1ccc2ccccc2n1` (stereo not shown), the AC50 under setting [2] was above 5000 nM.

Turning to `CC(C)(C)c1ncc(C(=O)N2CCc3[nH]cnc3[C@@H]2c2cn3ccccc3n2)s1` [Example 246, (S)-(2-(tert-butyl)thiazol-5-yl)(4-(imidazo[1,2-a]pyridin-2-yl)-6,7-dihydro-1H-imidazo[4,5-c]pyridin-5(4H)-yl)methanone], under setting [1], the AC50 was above 5000 nM.

Turning to `Cn1nc(COC(F)(F)F)cc1C(=O)N1CCc2[nH]cnc2C1c1ccc2ccccc2n1` (stereo not shown), the AC50 under setting [2] lay within 1000 to 5000 nM.

As to `O=C(c1ocnc1C(F)(F)F)N1CCc2[nH]cnc2[C@@H]1c1cn2ccccc2n1` [Example 233, (S)-(4-(imidazo[1,2-a]pyridin-2-yl)-6,7-dihydro-1H-imidazo[4,5-c]pyridin-5(4H)-yl)(4-(trifluoromethyl)oxazol-5-yl)methanone], the AC50 under setting [1] was above 5000 nM.

With `O=C(c1cnc(-c2ccccn2)s1)N1CCc2[nH]cnc2[C@@H]1c1ccc2ccccc2c1` [Example 224, (S)-(4-(naphthalen-2-yl)-6,7-dihydro-1H-imidazo[4,5-c]pyridin-5(4H)-yl)(2-(pyridin-2-yl)thiazol-5-yl)methanone], the half-maximal activity concentration (AC50) under setting [1] was above 5000 nM.

In the case of `Cc1ncoc1CC(=O)N1CCc2[nH]cnc2C1c1cn2ccccc2n1` (stereo not shown), under setting [2], the AC50 is above 5000 nM.

Regarding `O=C(c1nnc(-c2ccc(F)cc2)o1)N1CCc2[nH]cnc2[C@H]1c1cc2ccccc2cn1` [Example 342, (R)-(5-(4-fluorophenyl)-1,3,4-oxadiazol-2-yl)(4-(isoquinolin-3-yl)-6,7-dihydro-1H-imidazo[4,5-c]pyridin-5(4H)-yl)methanone], the AC50 under setting [1] was below 500 nM.

On to `CC(C)(O)c1nc(C(F)F)c(C(=O)N2CCc3[nH]cnc3C2c2ncc3ccccc3n2)o1` (stereo not shown), for which the concentration at half-maximal activity (AC50) result under setting [3] was “E, E”.

`O=C(c1cnc(-c2ccccn2)s1)N1CCc2[nH]cnc2[C@H]1c1cc2ccccc2nn1` [Example 205, (S)-(4-(cinnolin-3-yl)-6,7-dihydro-1H-imidazo[4,5-c]pyridin-5(4H)-yl)(2-(pyridin-2-yl)thiazol-5-yl)methanone]: the AC50 under setting [1] fell in the range of 500 to 1000 nM.

Consider `O=C(c1cnn2cc(-c3ccncc3)ccc12)N1CCc2[nH]cnc2[C@H]1c1cc2ccccc2cn1` [Example 486, (R)-(4-(isoquinolin-3-yl)-6,7-dihydro-1H-imidazo[4,5-c]pyridin-5(4H)-yl)(6-(pyridin-4-yl)pyrazolo[1,5-a]pyridin-3-yl)methanone], for which, under setting [1], the AC50 is below 500 nM.

In the case of `CN(C)Cc1ccc2c(C(=O)N3CCc4[nH]cnc4C3c3ccc4ccccc4n3)cnn2c1` (stereo not shown), the AC50 under setting [2] lay in the range of 1000 to 5000 nM.

`FC(F)(F)c1cnc(N2CCc3[nH]cnc3[C@@H]2c2cn3ccccc3n2)nc1` [Example 232, (S)-4-(imidazo[1,2-a]pyridin-2-yl)-5-(5-(trifluoromethyl)pyrimidin-2-yl)-4,5,6,7-tetrahydro-1H-imidazo[4,5-c]pyridine]: the AC50 under setting [1] is above 5000 nM.

As for `O=C(c1cnc(-c2ccccn2)s1)N1CCc2[nH]cnc2C1c1ccc2ccccc2n1` (stereo in doubt) [Example 1, (R)-(2-(pyridin-2-yl)thiazol-5-yl)(4-(quinolin-2-yl)-6,7-dihydro-1H-imidazo[4,5-c]pyridin-5(4H)-yl)methanone], the AC50 under setting [1] was below 500 nM.

As to `O=C(c1nnc(-c2ccn(CC(F)F)n2)o1)N1CCc2[nH]cnc2C1c1ccc2ccccc2n1` (stereo not shown) [listing 1 of 2 here], the half-maximal activity concentration (AC50) under setting [2] lay in the range of 1000 to 5000 nM.

Consider `CC1CN(C(=O)c2nnc(N3CCN(C)CC3)o2)C(c2cc3ccccc3cn2)c2nc[nH]c21` [(4S, 7R) diastereomer of 3-[7-methyl-5-[5-(4-methylpiperazin], for which, under setting [3], the AC50 result is “E, E”.

In the case of `O=C(c1cnc(-c2ccccn2)o1)N1CCc2[nH]cnc2[C@@H]1c1cc2ccccc2cn1` [Example 309, (S)-(4-(isoquinolin-3-yl)-6,7-dihydro-1H-imidazo[4,5-c]pyridin-5(4H)-yl)(2-(pyridin-2-yl)oxazol-5-yl)methanone], the AC50 under setting [1] was above 5000 nM.

As for `CC(C)(O)c1nnc(C(=O)N2CCc3[nH]cnc3C2c2ccc3ccccc3n2)o1` (stereo in doubt) [Example 28, (R)-(5-(2-hydroxypropan-2-yl)-1,3,4-oxadiazol-2-yl)(4-(quinolin-2-yl)-6,7-dihydro-1H-imidazo[4,5-c]pyridin-5(4H)-yl)methanone], under setting [1], the AC50 fell in the range of 1000 to 5000 nM.

Take `COC(=O)N1CC(C(=O)N2CCc3[nH]cnc3C2c2ccc3ccccc3n2)C1` (stereo not shown): the AC50 under setting [2] was above 5000 nM.

Regarding `Cc1c(-c2nnc(C(=O)N3C[C@@H](C)c4[nH]cnc4[C@@H]3c3cc4ccccc4cn3)o2)cnn1C`, under setting [2], the AC50 fell in the range of 1000 to 5000 nM.

As to `O=C(Cc1nncs1)N1CCc2[nH]cnc2[C@H]1c1cc2ccccc2cn1` [Example 349, (R)-1-(4-(isoquinolin-3-yl)-6,7-dihydro-1H-imidazo[4,5-c]pyridin-5(4H)-yl)-2-(1,3,4-thiadiazol-2-yl)ethanone], the AC50 under setting [1] was below 500 nM.

Regarding `O=C(c1nncs1)N1CCc2[nH]cnc2[C@H]1c1cc2ccccc2cn1` [Example 350, (R)-(4-(isoquinolin-3-yl)-6,7-dihydro-1H-imidazo[4,5-c]pyridin-5(4H)-yl)(1,3,4-thiadiazol-2-yl)methanone], the AC50 under setting [1] is below 500 nM.

On to `O=C(c1cnn2ccccc12)N1CCc2[nH]cnc2C1c1ccc2ccccc2n1` (stereo not shown), for which the AC50 under setting [2] fell in the range of 1000 to 5000 nM.

`O=C(c1nnc(C2CC2)o1)N1CCc2[nH]cnc2C1c1cn2ccccc2n1` (stereo not shown): the AC50 under setting [2] fell in the range of 1000 to 5000 nM.

Turning to `CC(C)(O)c1ncc(C(=O)N2CCc3[nH]cnc3C2c2ccc3ccccc3n2)s1` (stereo not shown), the AC50 under setting [2] was 1000 to 5000 nM.

Turning to `O=C(c1nnc(-c2ccn(CC(F)F)n2)o1)N1CCc2[nH]cnc2C1c1ccc2ccccc2n1` (stereo not shown) [listing 2 of 2 here], under setting [2], the AC50 was above 5000 nM.

As to `O=C(c1oc(-c2ccccn2)nc1C(F)F)N1CCc2[nH]cnc2[C@@H]1c1ccc2ccccc2n1` [Example 66], the AC50 under setting [1] fell in the range of 1000 to 5000 nM.

Consider `O=C(c1nnc(CCN2CC(F)C2)o1)N1CCc2[nH]cnc2[C@H]1c1cc2ccccc2cn1`, for which the half-maximal activity concentration (AC50) under setting [2] lay in the range of 1000 to 5000 nM.

With `Cc1nc(C(C)(C)O)oc1C(=O)N1CCc2[nH]cnc2[C@H]1c1ccc2ccccc2n1` [Example 13], the AC50 under setting [1] was 1000 to 5000 nM.

As for `C[C@H](O)c1nnc(C(=O)N2CCc3[nH]cnc3[C@H]2c2cc3ccccc3nn2)o1` (single isomer, unassigned), the AC50 under setting [2] was 1000 to 5000 nM.
